# Reference: ChEMBL document CHEMBL1201862, “PubChem BioAssay data set” (2004)
# The source made the active and inactive calls.
# How the values were obtained:
# [1] = target: T1, Acyl-homoserine lactone acylase PvdQ (Pseudomonas aeruginosa (strain LESB58), UniProt Q9I194); assay: P. aeruginosa PvdQ acylase inhibitors, dose response, biochemical, fluorescence, plate reader and imaging, cherry-picks (AID 493231)
# T1 sequence (Q9I194 whole entry): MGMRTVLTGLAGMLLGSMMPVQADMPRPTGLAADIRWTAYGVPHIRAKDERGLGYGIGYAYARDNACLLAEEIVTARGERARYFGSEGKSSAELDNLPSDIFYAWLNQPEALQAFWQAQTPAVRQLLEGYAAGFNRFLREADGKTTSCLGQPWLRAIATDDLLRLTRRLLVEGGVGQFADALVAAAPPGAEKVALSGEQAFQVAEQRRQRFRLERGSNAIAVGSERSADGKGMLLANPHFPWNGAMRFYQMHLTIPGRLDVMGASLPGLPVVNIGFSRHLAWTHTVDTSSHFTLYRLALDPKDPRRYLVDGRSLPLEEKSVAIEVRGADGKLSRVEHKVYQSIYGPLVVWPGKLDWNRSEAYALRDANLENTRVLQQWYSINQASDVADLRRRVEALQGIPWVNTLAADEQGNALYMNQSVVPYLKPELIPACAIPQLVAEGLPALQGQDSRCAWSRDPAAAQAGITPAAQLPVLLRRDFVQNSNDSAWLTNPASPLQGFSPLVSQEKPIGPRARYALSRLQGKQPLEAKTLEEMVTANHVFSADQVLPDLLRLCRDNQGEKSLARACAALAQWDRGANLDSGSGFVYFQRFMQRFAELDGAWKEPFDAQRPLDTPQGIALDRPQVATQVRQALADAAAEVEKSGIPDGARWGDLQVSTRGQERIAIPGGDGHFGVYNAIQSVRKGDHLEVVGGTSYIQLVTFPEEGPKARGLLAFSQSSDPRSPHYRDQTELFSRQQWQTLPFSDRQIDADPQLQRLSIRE
# [2] = test system: HeLa; assay: HeLa cell cytotoxicity, dose response, cytotoxicity control, 48 h, plate reader, cherry-picks (AID 504942); format: functional, cell-based; details: Homo sapiens
# [3] = target: Tyrosine-protein kinase Fyn (Homo sapiens, UniProt P06241); format: functional
# Tyrosine-protein kinase Fyn, sequence (P06241 whole entry): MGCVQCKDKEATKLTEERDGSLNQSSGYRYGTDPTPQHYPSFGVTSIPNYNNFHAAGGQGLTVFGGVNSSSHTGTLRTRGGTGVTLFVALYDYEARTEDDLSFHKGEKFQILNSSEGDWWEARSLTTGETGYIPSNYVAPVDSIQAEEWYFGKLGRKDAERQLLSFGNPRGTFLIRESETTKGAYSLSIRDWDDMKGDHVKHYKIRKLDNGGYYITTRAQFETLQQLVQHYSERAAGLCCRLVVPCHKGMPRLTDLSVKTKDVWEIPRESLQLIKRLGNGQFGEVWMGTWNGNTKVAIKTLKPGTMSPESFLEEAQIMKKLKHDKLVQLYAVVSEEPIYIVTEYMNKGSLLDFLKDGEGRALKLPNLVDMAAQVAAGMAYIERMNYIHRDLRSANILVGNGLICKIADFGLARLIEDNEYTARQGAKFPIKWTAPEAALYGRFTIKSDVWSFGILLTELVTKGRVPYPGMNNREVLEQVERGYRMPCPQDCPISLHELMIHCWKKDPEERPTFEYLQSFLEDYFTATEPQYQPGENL
# [4] = target: Mitogen-activated protein kinase kinase kinase kinase 4 (Homo sapiens, UniProt O95819); format: functional
# Mitogen-activated protein kinase kinase kinase kinase 4, sequence (O95819 whole entry): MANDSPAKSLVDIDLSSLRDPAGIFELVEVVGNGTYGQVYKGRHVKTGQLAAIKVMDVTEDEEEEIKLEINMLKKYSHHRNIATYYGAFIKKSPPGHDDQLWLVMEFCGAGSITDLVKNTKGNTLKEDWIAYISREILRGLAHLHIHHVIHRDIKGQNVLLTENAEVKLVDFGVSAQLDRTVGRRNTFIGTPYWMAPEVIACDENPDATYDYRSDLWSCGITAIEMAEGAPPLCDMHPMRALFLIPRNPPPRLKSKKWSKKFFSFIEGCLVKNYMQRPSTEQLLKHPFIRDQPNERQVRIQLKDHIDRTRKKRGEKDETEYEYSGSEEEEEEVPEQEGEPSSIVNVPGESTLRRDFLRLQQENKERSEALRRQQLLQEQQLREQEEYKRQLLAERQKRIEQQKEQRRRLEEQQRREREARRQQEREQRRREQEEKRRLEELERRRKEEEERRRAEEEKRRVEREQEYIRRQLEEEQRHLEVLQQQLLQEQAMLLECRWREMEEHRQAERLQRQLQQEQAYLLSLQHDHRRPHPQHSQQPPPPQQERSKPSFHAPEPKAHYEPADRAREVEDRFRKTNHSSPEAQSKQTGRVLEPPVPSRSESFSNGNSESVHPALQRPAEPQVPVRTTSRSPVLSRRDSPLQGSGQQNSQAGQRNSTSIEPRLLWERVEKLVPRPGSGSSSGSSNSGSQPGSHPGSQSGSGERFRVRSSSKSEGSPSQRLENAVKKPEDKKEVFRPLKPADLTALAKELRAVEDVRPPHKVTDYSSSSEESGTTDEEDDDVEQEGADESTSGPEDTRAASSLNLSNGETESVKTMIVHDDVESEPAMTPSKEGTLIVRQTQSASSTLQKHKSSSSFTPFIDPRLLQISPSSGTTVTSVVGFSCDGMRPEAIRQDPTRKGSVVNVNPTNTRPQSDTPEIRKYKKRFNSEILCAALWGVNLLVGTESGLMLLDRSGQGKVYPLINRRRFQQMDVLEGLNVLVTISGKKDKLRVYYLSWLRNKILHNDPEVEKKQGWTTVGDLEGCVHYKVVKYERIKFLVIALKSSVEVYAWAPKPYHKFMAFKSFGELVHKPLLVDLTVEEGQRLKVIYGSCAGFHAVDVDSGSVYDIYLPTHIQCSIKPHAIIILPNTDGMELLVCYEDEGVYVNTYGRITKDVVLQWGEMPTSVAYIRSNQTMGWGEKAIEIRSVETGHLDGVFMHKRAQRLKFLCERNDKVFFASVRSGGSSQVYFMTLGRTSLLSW
# [5] = target: Tyrosine-protein kinase Lck (Homo sapiens, UniProt P06239); format: functional;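 further: lck was assayed as one member of a kinase panel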
# [6] = target: Misshapen-like kinase 1 (Homo sapiens, UniProt Q8N4C8); format: functional;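 further: kinome panel screen with MINK as the panel member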
# [7] = target: Serine/threonine-protein kinase TAO1 (Homo sapiens, UniProt Q7L7X3); format: functional
# [8] = target: Focal adhesion kinase 1 (Homo sapiens, UniProt Q05397); format: functional;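 further: measured as one member of a kinome panel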
# Focal adhesion kinase 1, sequence (Q05397 whole entry): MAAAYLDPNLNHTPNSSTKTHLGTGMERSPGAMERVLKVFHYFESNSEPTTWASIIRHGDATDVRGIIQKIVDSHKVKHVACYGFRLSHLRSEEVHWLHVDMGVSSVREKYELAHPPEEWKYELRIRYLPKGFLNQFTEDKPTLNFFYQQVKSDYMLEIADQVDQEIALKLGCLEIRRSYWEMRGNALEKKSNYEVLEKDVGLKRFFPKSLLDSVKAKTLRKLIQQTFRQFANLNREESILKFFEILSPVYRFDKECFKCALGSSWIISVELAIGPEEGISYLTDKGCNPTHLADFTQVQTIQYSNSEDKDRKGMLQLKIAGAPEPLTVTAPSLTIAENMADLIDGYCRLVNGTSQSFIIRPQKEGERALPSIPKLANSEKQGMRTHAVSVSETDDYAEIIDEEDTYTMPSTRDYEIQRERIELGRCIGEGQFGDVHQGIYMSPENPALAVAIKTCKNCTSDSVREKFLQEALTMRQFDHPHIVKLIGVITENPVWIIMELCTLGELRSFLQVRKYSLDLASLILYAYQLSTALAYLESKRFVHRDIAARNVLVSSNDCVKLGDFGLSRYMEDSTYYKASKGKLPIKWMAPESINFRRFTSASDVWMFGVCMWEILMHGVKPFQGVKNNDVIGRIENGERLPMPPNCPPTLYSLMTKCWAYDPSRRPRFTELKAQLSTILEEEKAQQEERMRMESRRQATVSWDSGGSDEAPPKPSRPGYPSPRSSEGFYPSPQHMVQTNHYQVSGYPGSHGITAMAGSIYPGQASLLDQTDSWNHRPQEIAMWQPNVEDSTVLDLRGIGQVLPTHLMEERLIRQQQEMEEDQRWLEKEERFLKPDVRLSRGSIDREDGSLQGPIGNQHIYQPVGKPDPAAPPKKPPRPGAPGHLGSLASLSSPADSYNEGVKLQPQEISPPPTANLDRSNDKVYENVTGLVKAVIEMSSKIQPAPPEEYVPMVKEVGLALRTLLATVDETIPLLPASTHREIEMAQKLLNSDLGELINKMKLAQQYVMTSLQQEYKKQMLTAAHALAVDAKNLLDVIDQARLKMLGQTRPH
# [9] = target: Tyrosine-protein kinase BTK (Homo sapiens, UniProt Q06187); format: functional
# Tyrosine-protein kinase BTK, sequence (Q06187 whole entry): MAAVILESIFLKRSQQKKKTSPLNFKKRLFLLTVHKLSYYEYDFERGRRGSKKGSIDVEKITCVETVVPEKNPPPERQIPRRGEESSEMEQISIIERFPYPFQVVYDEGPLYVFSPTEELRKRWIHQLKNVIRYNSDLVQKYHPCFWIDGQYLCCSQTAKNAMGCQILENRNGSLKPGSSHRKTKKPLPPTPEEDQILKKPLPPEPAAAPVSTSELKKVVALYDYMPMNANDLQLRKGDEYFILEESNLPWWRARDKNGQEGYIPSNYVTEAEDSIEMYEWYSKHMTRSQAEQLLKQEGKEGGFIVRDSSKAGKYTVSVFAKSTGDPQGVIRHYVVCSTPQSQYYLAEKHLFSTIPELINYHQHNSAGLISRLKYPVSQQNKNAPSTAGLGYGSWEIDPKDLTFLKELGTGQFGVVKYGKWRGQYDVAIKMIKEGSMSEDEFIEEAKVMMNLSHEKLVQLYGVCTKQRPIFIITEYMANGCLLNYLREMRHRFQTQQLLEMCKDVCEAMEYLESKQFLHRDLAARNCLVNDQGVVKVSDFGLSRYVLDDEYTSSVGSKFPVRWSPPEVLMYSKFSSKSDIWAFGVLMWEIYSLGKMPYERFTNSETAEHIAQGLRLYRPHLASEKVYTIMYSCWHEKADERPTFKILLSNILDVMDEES
# [10] = target: Macrophage colony-stimulating factor 1 receptor (Homo sapiens, UniProt P07333); format: functional;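 further: value comes from the Navigating the Kinome screening panel, CSF1R member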
# [11] = target: Vascular endothelial growth factor receptor 2 (Homo sapiens, UniProt P35968); format: functional
# [12] = target: Insulin-like growth factor 1 receptor (Homo sapiens, UniProt P08069); assay: Navigating the Kinome. Panel member name: IGF1R; format: functional
# Insulin-like growth factor 1 receptor, sequence (P08069 31-736 limits assumed): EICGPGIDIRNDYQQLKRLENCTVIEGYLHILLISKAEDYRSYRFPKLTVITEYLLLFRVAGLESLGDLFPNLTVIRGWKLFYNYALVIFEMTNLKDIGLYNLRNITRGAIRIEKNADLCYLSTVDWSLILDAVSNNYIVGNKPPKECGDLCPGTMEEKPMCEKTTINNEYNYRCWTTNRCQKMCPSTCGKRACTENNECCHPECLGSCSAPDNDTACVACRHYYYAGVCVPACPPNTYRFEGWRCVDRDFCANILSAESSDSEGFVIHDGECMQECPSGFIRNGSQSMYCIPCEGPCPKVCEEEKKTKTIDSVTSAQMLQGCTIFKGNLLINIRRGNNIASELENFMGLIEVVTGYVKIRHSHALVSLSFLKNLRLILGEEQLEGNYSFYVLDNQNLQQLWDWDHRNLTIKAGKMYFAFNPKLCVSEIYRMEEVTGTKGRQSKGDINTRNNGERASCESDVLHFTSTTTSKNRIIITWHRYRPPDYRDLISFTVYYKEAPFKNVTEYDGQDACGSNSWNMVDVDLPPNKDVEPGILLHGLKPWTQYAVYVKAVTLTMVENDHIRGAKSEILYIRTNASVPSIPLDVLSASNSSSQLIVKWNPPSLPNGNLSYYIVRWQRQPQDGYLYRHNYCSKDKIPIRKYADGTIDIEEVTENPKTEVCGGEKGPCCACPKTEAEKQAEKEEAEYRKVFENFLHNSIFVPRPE
# Insulin-like growth factor 1 receptor, sequence (P08069 741-1367 limits assumed): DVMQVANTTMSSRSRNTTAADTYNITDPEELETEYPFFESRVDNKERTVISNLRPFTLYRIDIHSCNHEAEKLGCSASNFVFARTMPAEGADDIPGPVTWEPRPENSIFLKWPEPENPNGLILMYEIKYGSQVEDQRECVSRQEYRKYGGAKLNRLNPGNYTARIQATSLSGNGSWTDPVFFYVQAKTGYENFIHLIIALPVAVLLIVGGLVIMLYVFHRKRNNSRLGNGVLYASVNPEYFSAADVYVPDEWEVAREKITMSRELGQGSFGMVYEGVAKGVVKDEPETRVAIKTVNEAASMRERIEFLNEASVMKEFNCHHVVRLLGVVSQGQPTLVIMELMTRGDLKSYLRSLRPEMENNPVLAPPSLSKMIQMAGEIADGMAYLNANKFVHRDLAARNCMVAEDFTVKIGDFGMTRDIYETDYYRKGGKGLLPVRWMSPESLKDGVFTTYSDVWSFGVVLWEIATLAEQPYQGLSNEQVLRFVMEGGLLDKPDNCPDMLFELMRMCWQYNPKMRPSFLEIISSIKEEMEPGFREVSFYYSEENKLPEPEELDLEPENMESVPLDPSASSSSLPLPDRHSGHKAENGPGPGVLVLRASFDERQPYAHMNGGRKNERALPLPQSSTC
# [13] = test system: Jurkat; assay: SAR Analysis of small molecule inhibitors of […] specific antigen receptor-induced NF-kB activation in a Jurkat cell line using a luminescence assay - Set 3. [Related pubchem assays (depositor defined):AID435022, AID435025, AID465]; format: functional, cell-based; details: Homo sapiens
# [14] = test system: HEK293; assay: cytotoxicity in HEK293T NF-kB-Luc cells, SAR follow-up, cytotoxicity control for NF-kB activator project, cell-based, resazurin fluorescence (AID 493251); format: functional; details: Homo sapiens
# [15] = test system: HEK293; assay: SAR Analysis of small molecule inhibitors of B-cell specific antigen receptor-induced NF-kB activation in a HEK-293T cell line using a luminescence assay - Set 2. [Related pubchem assays (depositor defined):AID435022, AID435025, AID489021]; format: functional, cell-based; details: Homo sapiens
# [16] = test system: Candida albicans; assay: fluconazole resistance reversal in C. albicans, dose response, CaCi-2 strain, Alamar Blue, dry powder, set 4 (AID 488943); format: functional, organism-based
# [17] = test system: Candida albicans; assay: growth inhibition of resistant C. albicans, dose response, CaCi-8, fluconazole, Alamar Blue, dry powder (AID 488807); format: functional, organism-based
# [18] = test system: Candida albicans; assay: growth inhibition of azole-resistant C. albicans, dose response, CaCi-8 strain, Alamar Blue, dry powder, set 2 (AID 488909); format: functional, organism-based
# [19] = test system: Candida albicans; assay: C. albicans growth inhibition with fluconazole, dose response, antifungal resistance reversal project, CaCi-2 strain, Alamar Blue, dry powder, set 2 (AID 488930); format: functional, organism-based
# [20] = cells; format: functional, cell-based
# [21] = test system: Streptococcus; assay: Group A Streptococcus viability loss, dose response, counter-screen for streptokinase expression inhibitor project, luminescence, BacTiterGlo (AID 1915); format: functional, organism-based;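 further: potency for reduction of bacterial viability or growth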
# [22] = test system: BJ; assay: cells; format: functional, cell-based; details: Homo sapiens
# [23] = test system: BJ; assay: cytotoxicity toward BJ-TERT-LT-ST fibroblasts, dose response, cell-based, RAS-independent, luminescence (AID 1935); format: functional; details: Homo sapiens;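 further: BJ fibroblasts immortalized with TERT plus LT and ST oncogenes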
# [24] = cells; format: functional, cell-based; remark: listed apart in the source
# [25] = test system: BJ; assay: cytotoxicity toward BJ-TERT fibroblasts, dose response, cell-based, RAS-independent, luminescence (AID 1933); format: functional; details: Homo sapiens
# [26] = test system: Streptococcus sp. 'group A'; assay: growth inhibition of control SK(-) GAS strain, dose response, counter-screen for streptokinase expression inhibitor project, luminescence, kanamycin, BacTiterGlo, confirmation (AID 1900); format: functional, organism-based
# [27] = test system: INS1; assay: beta cell apoptosis inhibitors, cytokine rescue, dose response, luminescence, retest (AID 449756); format: functional, cell-based; details: Rattus norvegicus;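 further: cell death triggered by IL-1 beta plus TNF-alpha plus IFN-gamma mixture; protective hits raise ATP signal compared with cytokine alone wells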
# [28] = test system: BJ; assay: cytotoxicity toward Ras-transformed BJeLR fibroblasts, dose response, cell-based, alamar blue fluorescence, cherrypicked samples (AID 2631); format: functional; details: Homo sapiens;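 further: confirmatory dose-response assay in RAS-dependent BJ fibroblasts engineered with TERT, LT and ST, with cytotoxicity read by fluorescence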
# [29] = cytotoxicity toward DRD oncogenic fibroblasts, dose response, cell-based, non-viral oncogenic, luminescence (AID 1934); format: functional; details: Homo sapiens
# [30] = target: T2, Streptokinase A (Streptococcus pyogenes serotype M1, UniProt P10520); assay: S. pyogenes streptokinase expression inhibitors, potency, dose response, plasminogen activation absorbance, OD405 (AID 1914); format: functional, Streptococcus pyogenes M1 GAS;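 further: secreted streptokinase activity via plasminogen activation per viability signal from cell pellet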
# T2 sequence (P10520 whole entry): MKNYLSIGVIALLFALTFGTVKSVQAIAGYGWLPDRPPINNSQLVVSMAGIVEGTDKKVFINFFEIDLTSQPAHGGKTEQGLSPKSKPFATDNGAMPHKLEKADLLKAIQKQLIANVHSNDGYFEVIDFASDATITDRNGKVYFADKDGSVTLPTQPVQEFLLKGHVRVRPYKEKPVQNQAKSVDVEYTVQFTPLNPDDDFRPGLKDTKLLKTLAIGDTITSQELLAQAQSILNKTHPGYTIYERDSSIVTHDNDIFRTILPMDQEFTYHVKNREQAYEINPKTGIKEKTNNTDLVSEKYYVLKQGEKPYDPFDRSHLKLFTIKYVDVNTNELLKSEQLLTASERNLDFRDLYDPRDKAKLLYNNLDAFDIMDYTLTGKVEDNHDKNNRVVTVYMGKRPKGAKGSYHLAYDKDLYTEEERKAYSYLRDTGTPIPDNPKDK
smiles,measurement,setting,value
N#CC(c1ccccc1)c1cccc(Cl)n1 (stereo not given),AC50,[1],1.1 µM (active)
same,AC50,[2],> 380 µM (inactive)
O=C(Cc1ccccc1)Nc1cccc(-c2nc3sccn3c2-c2ccnc(Nc3ccccc3Cl)n2)c1,Ki,[3],> 6.31 µM (inactive)
same,Ki,[4],> 5.01 µM (inactive)
same,Ki,[5],> 6.31 µM (inactive)
same,Ki,[6],> 5.01 µM (inactive)
same,Ki,[7],> 6.31 µM (inactive)
same,Ki,[8],3.16 µM (active)
same,Ki,[9],> 6.31 µM (inactive)
same,Ki,[10],0.631 µM (active)
same,Ki,[11],0.501 µM (active)
same,Ki,[12],1.26 µM (active)
CCOc1ccc(-c2nc(CSCC(=O)N3CCCC3)c(C)o2)cc1,IC50,[13],> 80 µM (inactive)
same,IC50,[14],> 80 µM (inactive)
same,IC50,[15],46.6 µM (inactive)
O=C(c1ccc(Cl)cc1)N1CCN(c2ccccn2)CC1,AC50,[16],24.5 µM (active)
same,AC50,[17],0.64 µM (active)
same,AC50,[18],28.1 µM (active)
same,AC50,[19],12 µM (active)
CCCc1sc(N/N=C/c2ccccn2)nc1-c1ccc(F)cc1,EC50,[20],38.1 µM (active)
same,EC50,[21],10.8 µM (active)
same,EC50,[22],10.7 µM (active)
same,EC50,[23],7.71 µM (active)
same,EC50,[24],74.4 µM (active)
same,EC50,[25],6.54 µM (active)
same,EC50,[26],7.2 µM (active)
same,AC50,[27],0.904 µM (active)
same,EC50,[28],19.4 µM (active)
same,EC50,[29],19.9 µM (active)
same,EC50,[30],> 150 µM (not active)
